We go through twelve molecules from patent US6600072B2, “Substituted 1-naphthoylguanidines, process for their preparation, their use as a medicament or diagnostic , and medicament containing them” (Aventis Pharma Deutschland GmbH, priority 1996, dated 2003).

By melting point is commonly meant the temperature, or range, at which the solid turns liquid. What is called pIC50 is −log10 of the IC50, conventionally taken in molar units.

SMILES strings stand for the structures. pIC50: −log10 of the molar value. Counter-ions that a name gives are not always drawn.

System in the first series: not given
Experiment: not given
Conditions: not given
On to `NC(N)=NC(=O)c1c(OCc2ccc(Br)cc2)ccc2ccccc12` (as salt: hydrochloride) (hydrate or solvate) [Example 9, 2-(4-Bromobenzyloxy)naphthoylguanidine Hydrochloride Hemihydrate], for which the melting point was in the range of 198 to 202 °C. On the same count and under the same terms, in the case of `COc1ccc2c(C(=O)N=C(N)N)cccc2c1C(F)(F)F` (as salt: hydrochloride) [Example 3, 6-Methoxy-5-trifluoromethyl-1-naphthoyl-guanidine Hydrochloride] it was over 260 °C; in that of `COc1ccc2c(C(=O)N=C(N)N)cccc2c1` (as salt: hydrochloride) [Example 4, 6-Methoxy-1-naphthoylguanidine Hydrochloride], 235 to 236 °C. In turn, `Cl.NC(N)=NC(=O)c1ccc(F)c2ccccc12` [Example 1, 4-Fluoro-1-naphthoylguanidine Hydrochloride] showed a melting point of 245 °C. Still for that read-out and setting: in the case of `NC(N)=NC(=O)c1c(OCc2ccc(CN3CCCCC3)cc2)ccc2ccccc12` [Example 10, 2-[4-(1-Piperidinomethyl)benzyloxy]-1-naphthoylguanidine] it was 205 to 210 °C.

Consider `NC(N)=NC(=O)c1ccc(C(=O)N=C(N)N)c2ccccc12` [Example 23, Naphthaline-1,4-dicarboxylic Acid Diguanidide], for which the melting point is 270 °C (dec.).

In a further series the target is T1, Na^+/H^+ exchanger of rabbit erythrocytes (Oryctolagus cuniculus, UniProt P23791).
T1 construct: determine the Na^+ influx into the erythrocytes via Na^+/H^+ exchange by flame photometry; endogenous in cells; host or cells: erythrocytes in whole blood of cholesterol-fed White New Zealand rabbits
T1 sequence (P23791 whole entry): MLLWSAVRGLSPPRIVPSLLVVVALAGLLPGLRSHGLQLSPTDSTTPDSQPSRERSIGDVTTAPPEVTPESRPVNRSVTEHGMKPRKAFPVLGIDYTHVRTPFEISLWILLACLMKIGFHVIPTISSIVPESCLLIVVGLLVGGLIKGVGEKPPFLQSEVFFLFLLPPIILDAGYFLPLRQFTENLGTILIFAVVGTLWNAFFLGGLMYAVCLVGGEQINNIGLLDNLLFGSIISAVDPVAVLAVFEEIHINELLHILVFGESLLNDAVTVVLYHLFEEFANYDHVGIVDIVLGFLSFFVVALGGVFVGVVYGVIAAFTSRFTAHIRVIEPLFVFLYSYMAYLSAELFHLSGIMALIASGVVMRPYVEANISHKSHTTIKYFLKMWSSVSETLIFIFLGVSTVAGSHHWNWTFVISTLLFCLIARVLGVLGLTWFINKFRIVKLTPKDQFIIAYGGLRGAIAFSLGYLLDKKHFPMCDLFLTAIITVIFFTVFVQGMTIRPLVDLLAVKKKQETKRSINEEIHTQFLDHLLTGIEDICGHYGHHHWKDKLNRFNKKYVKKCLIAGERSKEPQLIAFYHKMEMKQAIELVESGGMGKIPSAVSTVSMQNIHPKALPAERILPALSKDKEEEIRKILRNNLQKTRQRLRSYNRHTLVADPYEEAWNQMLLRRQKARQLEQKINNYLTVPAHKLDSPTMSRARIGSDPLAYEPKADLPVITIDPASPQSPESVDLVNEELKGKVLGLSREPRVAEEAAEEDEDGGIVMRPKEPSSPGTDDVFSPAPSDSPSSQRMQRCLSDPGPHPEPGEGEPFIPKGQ
Kind of series: Inhibition of the Na+/H+ exchanger of rabbit erythrocytes (amiloride-sensitive sodium influx, flame photometry). It counts as cell-based. The following applies: pH 7.4, 37° C., hyperosmolar salt-sucrose medium. The text has this:
Inhibition of the Na^+/H^+ exchanger of rabbit erythrocytes:
White New Zealand rabbits (Ivanovas) received a standard diet containing 2% cholesterol for six weeks in order to activate Na^+/H^+ exchange and thus to be able to determine the Na^+ influx into the erythrocytes via Na^+/H^+ exchange by flame photometry. The blood was taken from the auricular arteries and rendered uncoagulable by means of 25 lU/ml of potassium heparin. A part of each sample was used for the duplicate determination of the hematocrit by centrifugation. Aliquots of 100 μl in each case were used to measure the Na^+ starting content of the erythrocytes.
In order to determine the amiloride-sensitive sodium influx, 100 μl of each blood sample were incubated at pH 7.4 and 37° C. in 5 ml in each case of a hyperosmolar salt-sucrose medium (mmol/l: 140 NaCl, 3 KCl, 150 sucrose, 0.1 ouabain, 20 trishydroxymethylaminomethane). The erythrocytes were then washed three times with ice-cold MgCl2-ouabain solution (mmol/l: 112 MgCl2, 0.1 ouabain) and hemolyzed in 2.0 ml of distilled water. The intracellular sodium content was determined by flame photometry.
The net Na^+ influx was calculated from the difference between sodium starting values and the sodium content of the erythrocytes after incubation. The amiloride-inhibitable sodium influx ensued from the difference in the sodium content of the erythrocytes after incubation with and without amiloride 3×10^−4 mol/l. The sodium influx was also determined in this manner in the case of the compounds according to the invention.
On to `Cl.NC(N)=NC(=O)c1ccc(F)c2ccccc12` [Example 1, 4-Fluoro-1-naphthoylguanidine Hydrochloride], for which the pIC50 was 5.70 to 6.00. `N=C(N)NC(=O)c1cccc2ccccc12` [Example 6, 1-Naphthoylguanidine Hydrochloride]: the pIC50 was 5.00. With `COc1ccc2ccccc2c1C(=O)NC(=N)N` [Example 8, 2-Methoxy-1-naphthoylguanidine Hydrochloride], the pIC50 was 6.30. In the case of `CCCCOc1ccc2ccccc2c1C(=O)NC(=N)N` [Example 14, 2-Butyloxy-1-naphthoylguanidine Hydrochloride], the negative logarithm of the IC50 (pIC50) was 6.00.

As to `CC(C)Oc1ccc2ccccc2c1C(=O)NC(=N)N` [Example 18, 2-Isopropyloxy-1-naphthoylguanidine Hydrochloride], the negative-log IC50 (pIC50) is 5.70.

In a further series the test system is rat hearts.
Experiment: not given
Particulars: isolated rat hearts; cited from earlier work.
For `N=C(N)NC(=O)c1nc(Cl)c(N)nc1N` [amiloride, Amiloride], the “suppression of artificially induced ventricular fibrillation” value is “suppressed completely”.

`CCN(c1nc(N)c(C(=O)NC(=N)N)nc1Cl)C(C)C` [ethylisopropylamiloride, Ethylisopropylamiloride]: the “potency relative to amiloride in the ventricular fibrillation model” value is “even more potent than amiloride”.
